Here are results for 5 molecules from patent publication US12286455B2, “Anthelmintic depsipeptide compounds” (BOEHRINGER INGELHEIM ANIMAL HEALTH USA INC., priority 2015, dated 2025).

For assay [1], the system named is Dirofilaria immitis R isolate (reduced sensitivity to macrocyclic lactones). The assay can be described thus: Method D study 1: efficacy against induced D. immitis infection in beagle dogs (R isolate). In kind it is in vivo. The note with it: beagles.
Assay [2] has as its system Dirofilaria immitis S isolate (sensitive to macrocyclic lactones). Briefly: Method D study 2: efficacy against induced D. immitis infection in beagle dogs (S isolate). In kind it is in vivo. The note with it: beagles.
Where [3] appears, read: oral solution 2.5 mg/kg + ivermectin 6 μg/kg, days 0, 32, 60, 90 & 119, necropsy Day 150.

Consider `CC(C)C[C@H]1C(=O)O[C@H](C)C(=O)N(C)[C@@H](CC(C)(C)F)C(=O)O[C@H](Cc2ccc(C(F)(F)F)cc2)C(=O)N(C)[C@@H](CC(C)C)C(=O)O[C@H](C)C(=O)N(C)[C@@H](CC(C)(C)F)C(=O)O[C@H](Cc2ccc(C(F)(F)F)cc2)C(=O)N1C` [Compound 4-18], for which the Efficacy in assay [1] (setting [3]) was found to be 100%.
Turning to `CC(C)C[C@H]1C(=O)O[C@H](C)C(=O)N(C)[C@@H](CC(C)(C)F)C(=O)O[C@H](Cc2ccc(N3CCOCC3)cc2)C(=O)N(C)[C@@H](CC(C)C)C(=O)O[C@H](C)C(=O)N(C)[C@@H](CC(C)(C)F)C(=O)O[C@H](Cc2ccc(N3CCOCC3)cc2)C(=O)N1C` [Compound 6-18], the Efficacy in assay [1] (setting [3]) is 100%.
In the case of `CC(C)C[C@H]1C(=O)O[C@H](C)C(=O)N(C)[C@@H](CC(C)(C)F)C(=O)O[C@H](Cc2ccc(C3CCOCC3)cc2)C(=O)N(C)[C@@H](CC(C)C)C(=O)O[C@H](C)C(=O)N(C)[C@@H](CC(C)(C)F)C(=O)O[C@H](Cc2ccc(C3CCOCC3)cc2)C(=O)N1C` [Compound 7-18], the Efficacy is 100% in assay [1] (oral solution 1.0 mg/kg + ivermectin 6 μg/kg, days 0, 32, 60, 90 & 119, necropsy Day 150); 100% in assay [2] (oral solution 0.5 mg/kg, days 0, 30, 60, 90 & 120, necropsy Day 155); 100% in assay [2] (oral solution 2.5 mg/kg, days 0, 30, 60 & 154, necropsy Day 155).
Consider `CC(C)C[C@H]1C(=O)O[C@H](Cc2ccc(C3CCOCC3)cc2)C(=O)N(C)[C@@H](CC(C)C)C(=O)O[C@H](C)C(=O)N(C)[C@@H](CC(C)C)C(=O)O[C@H](Cc2ccc(C3CCOCC3)cc2)C(=O)N(C)[C@@H](CC(C)C)C(=O)O[C@H](C)C(=O)N1C` [Compound 7-27], for which, in assay [1] (setting [3]), the Efficacy turned out to be 100%.
Regarding `CC(C)C[C@H]1C(=O)O[C@H](Cc2ccc(N3CCOCC3)cc2)C(=O)N(C)[C@@H](CC(C)C)C(=O)O[C@H](C)C(=O)N(C)[C@@H](CC(C)C)C(=O)O[C@H](Cc2ccc(N3CCOCC3)cc2)C(=O)N(C)[C@@H](CC(C)C)C(=O)O[C@H](C)C(=O)N1C` [emodepside, reference compound], the Efficacy in assay [1] (setting [3]) was determined as 98.8%; in assay [1] (oral solution 2.5 mg/kg + ivermectin 6 μg/kg, days 0, 32, 60, 90 & 119, necropsy Day 150, listed as Emodepside), 98.8%.
